Experimental data: patent publication US9801850B2, “Antibacterial agent” (OSAKA UNIVERSITY, priority 2009, dated 2017)
In brackets after ≈: the same amount, converted by molar mass.

Legend:
[1] = test system: Pseudomonas aeruginosa ATCC7700; assay: Antibacterial spectrum MIC (Table 7); assay type: cell-based
Procedure, shortened: (§1)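 CLSI broth microdilution in Mueller-Hinton broth: compounds were dissolved in DMSO, diluted with sterile water and tested at final 8–512 μg/ml against about 1×10^5 CFU/ml inoculum. After 18 h at 37 °C, the MIC was read and OD600 turbidity was recorded.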

[2] = test system: Proteus vulgaris ATCC13315; assay: Antibacterial spectrum MIC (Table 7); assay type: cell-based
Procedure, shortened: as §1

[3] = test system: MRSA ATCC43300; assay: MIC with addition of PG, LPS or D-Ala-D-Ala (Example 3); assay type: cell-based, Staphylococcus aureus; details: MRSA (ATCC43300)
Experimental: (§2) Regarding EGCG-C16, whether or not the antibacterial action thereof against MSSA and MRSA is inhibited by the addition of: peptidoglycan (PG) or D-Ala-D-Ala, which are each a cell wall component; or lipopolysaccharide (LPS), which is an outer membrane component, was examined. The MIC measurement was carried out in the manner described in Section (2) of Example 2.
(§3) In Example 3, EGCG-C16 prepared in Example 1 was used as an antibacterial agent. In Comparative Example 3, unsubstituted EGCG was used as an antibacterial agent. […] Antibacterial agent solutions of EGCG-C16 and EGCG were prepared in the same manner as described in Section (2) of Example 1. Antibacterial agent solutions of the antibacterial agents other than EGCG-C16 and EGCG were prepared by dissolving them in PBS.
(§4) As additives, PG (Peptidoglycan Staphylococcus aureus, SIGMA-ALDRICH), D-Ala-D-Ala (SIGMA-ALDRICH), and LPS (Lipopolysaccharide Salmonella, SIGMA-ALDRICH) were provided. Each of the additives was dissolved in PBS, and the resultant solution was used as an additive solution.
(§5) Dilution series of the antibacterial agent solutions were prepared. Each of them was dispensed to a 96-well plate. Further, the additive solution was added thereto and mixed. After that, a bacterial culture solution of MRSA ATCC43300 or MSSA ATCC25923 was added thereto and cultured at 37° C. for 18 hours. In the mixture of the antibacterial agent solution, the additive solution, and the bacterial culture solution, the final concentrations of PG, D-Ala-D-Ala, and LPS were each set to 30 μg/ml. Unless otherwise stated, the minimum inhibitory concentration (MIC) was calculated in the same manner as described in Section (2) of Example 2.

[4] = test system: MSSA ATCC25923; assay: as above; assay type: cell-based, Staphylococcus aureus; details: MSSA (ATCC25923)
Experimental: as §2, §3, §4, §5

[5] = test system: fungi; assay: Antifungal effect over the fungi of Table 8; assay type: cell-based; details: respective types of fungi of Table 8
Experimental: Regarding the respective type strains shown in Tables 7 and 8 below, the MIC measurement was performed using the antibacterial agent solutions of Example 2 in the same manner as described in Section (2) of Example 1, except for the following. The antibacterial agent solutions were prepared by dissolving the EGCG derivatives of Example 2 in 100% DMSO and then diluting the resultant mixtures with sterile distilled water. The respective strains were derived from ATCC or NCTC. As Moraxella catarrhalis and Aspergillus fumigatus, clinical isolates thereof without an acquired resistance mechanism were used. For nutrient-rich bacteria, namely, Streptococcus pneumoniae ATCC49619, Streptococcus pyogenes ATCC19615, Streptococcus agalactiae ATCC13813, Moraxella catarrhalis, and Haemophilis influenzae ATCC49766, Strepto Haemo supplement (Eiken Chemical Co., Ltd.) was added to media for culturing them. The MIC measurement with respect to fungi was carried out by a broth microdilution method using a RPMI1640/MOPS (pH 7.0) medium in accordance with CLSI guidelines. About 2×10^3 cells/ml of fungi were inoculated to the medium. After the culture at 35° C. for 24 to 48 hours, the MIC was determined. Also, regarding the antibacterial agent solution of Comparative Example 2, the MIC was measured in the same manner.

[6] = +LPS (30 μg/mL), upper part of Table 9
[7] = +PG (30 μg/mL), upper part of Table 9 (PG/LPS series)
[8] = MH-broth free of additives, upper part of Table 9 (PG/LPS series)
[9] = +D-Ala-D-Ala (30 μg/mL), lower part of Table 9
[10] = +PG (30 μg/mL), lower part of Table 9 (PG/D-Ala-D-Ala series)
[11] = MH-broth free of additives, lower part of Table 9 (PG/D-Ala-D-Ala series)

| Compound | MIC [1] [µg/mL] | MIC [2] [µg/mL] | MIC [3, 6] [µg/mL] | MIC [3, 7] [µg/mL] | MIC [3, 8] [µg/mL] | MIC [4, 6] [µg/mL] | MIC [4, 7] [µg/mL] | MIC [4, 8] [µg/mL] | antifungal effect [5] | also measured |
| --- | --- | --- | --- | --- | --- | --- | --- | --- | --- | --- |
| O=C(O[C@@H]1Cc2c(O)cc(O)cc2O[C@@H]1c1cc(O)c(O)c(O)c1)c1cc(O)c(O)c(O)c1 [EGCG, Epigallocatechin gallate, reference compound] | 64 (≈ 140 µM) | 64 (≈ 140 µM) | > 64 | > 64 | > 64 | > 64 | > 64 | > 64 |  |  |
| EGCG-stearate [EGCG-C18] | 32 |  |  |  |  |  |  |  |  |  |
| EGCG-linolate [EGCG-C18DE] |  | 32 |  |  |  |  |  |  |  |  |
| EGCG-palmitate [EGCG-C16] |  |  | 16 | 32 | 16 | 16 | 32 | 16 |  | MIC [3, 9]: 8 µg/mL; MIC [3, 10]: 16 µg/mL; MIC [3, 11]: 8 µg/mL; MIC [4, 9]: 16 µg/mL; MIC [4, 10]: 32 µg/mL; MIC [4, 11]: 16 µg/mL |
| EGCG-α-linoleate [EGCG-C18TE] |  |  |  |  |  |  |  |  | highest antifungal effect |  |
| EGCG-palmitoleate [EGCG-C16E] |  |  |  |  |  |  |  |  | highest antifungal effect |  |
